Source: patent US10208066B2, “Imidazopyridazine compounds and their use” (HUTCHISON MEDIPHARMA LIMITED, priority 2014, dated 2019)
Where two headings read alike, the source gives them in different places.

Key:
[1] = biological target: PI3K-δ (p110δ/p85α) (Homo sapiens (Human), UniProt O00329); test: Transcreener KINASE Assay, fluorescent determination of PI3K enzyme activity; format: biochemical; details: for inhibition at 1 µM: read-out: PI3K-δ IH % (inhibition rate);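 as to all read-outs here: ADP formed by the kinase detected via far-red competitive fluorescence polarization immunoassay after 80 min room-temperature reaction, inhibition relative to 2% DMSO wells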
Description: (§1) It is a universal, homogenous, high throughput screening (HTS) technology using a far-red, competitive fluorescence polarization immunoassay based on the detection of ADP to monitor the activity of enzymes that catalyze group transfer reactions. […] The reaction mixture was added into desired wells of a 96-well plate. The plate was sealed and incubated for 80 min at room temperature. • 2) Next, 25 uL ADP detection mix was added into each well. The plate was sealed again and incubated for 60 min at room temperature. Then fluorescence polarization was measured by Tecan Infinite F500 Reader.
(§2) Data was analyzed and IC50 values were generated using the add-in software for Microsoft Excel, Xlfit™ (version 5.3).

[2] = system: AKT phosphorylation (p-AKT Ser473) in Ramos cells; test: Inhibition of AKT phosphorylation in Ramos cell line (anti-IgM stimulated); format: cell-based; details: Homo sapiens, read-out: IC50, inhibition of AKT phosphorylation
Description: 6×10^4/mL Ramos cells (ATCC, CRL-1596; cells were cultured in RPMI1640 media with 10% FBS) were seeded into a 96-well plate (Beckman Dickinson, No. 356692) at 80 uL/well, 4,800 cells/well. After incubation for 3 hr at 37° C. under 5% CO2, Ramos cells were treated with 10 uL/well various concentrations of test compound (final concentrations of the test compound: 1 uM, 0.3 uM, 0.1 uM, 0.037 uM, 0.012 uM, 0.0041 uM, 0.0014 uM and 0.0005 uM) or 0.3% DMSO for 30 min, and then were stimulated with 10 uL/well 1 ug/ml Anti-IgM (Jackson Immunoresearch, 709-006-073) for 15-20 min. • 1) Cells were fixed with 100 μL of 4% pre-warmed Paraformaldehyde (2% final concentration), and incubated for 45 min at room temperature. • 2) The paraformaldehyde solution was removed. 100 μL of ice-cold methanol was added into each well and the plate was left at 4° C. for 30 min. • 3) The cells were washed for three times with 160 μL PBS. • 4) 40 μL 1:350 dilution of Rabbit anti-p-AKT(Ser^473) antibody (Cell Signaling Technology, 4060L) in antibody dilution buffer (1% BSA, in PBS) were added into each well. The plate was inculpated overnight at 4° C. • 5) The cells were washed for 3 times with 160 uL PBS. • 6) 45 μL of Goat anti-rabbit IgG Alexa488 antibody (Invitrogen, A11034) at a 1:1,000 dilution in antibody dilution buffer (1% BSA, in PBS) were added into each well. The plate was covered with foil to keep out of light and was incubated for 90 min at room temperature. • 7) The cells were washed for 3 times with 160 uL PBS. • 8) 50 μL of 1.5 μM Propidium Iodide (Sigma: P4170) solution was added into each well to determine cell number (1.5 mM Propidium iodide stock was diluted with 1:1,000 in PBS, and the final concentration was 1.5 μM). • 9) The plate was incubated at room temperature for 30 min and then was sealed with a cover-seal. • 10) The plate was loaded into the Acumen Explorer and scan with the appropriate instrument settings.
as §2

[3] = biological target: PI3K-β (Homo sapiens, UniProt P42338); test: Transcreener KINASE Assay, fluorescent determination of PI3K enzyme activity; format: biochemical; details: for inhibition at 1 µM: read-out: PI3K-β IH % (inhibition rate);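 as to all read-outs here: recombinant PI3K enzyme reaction, 80 min at room temperature, ADP formed detected by far-red competitive fluorescence polarization immunoassay, inhibition relative to ADP in 2% DMSO control wells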
Description: as §1, §2

[4] = biological target: PI3K-γ (p110γ) (Homo sapiens (Human), UniProt P48736); test: as above; format: biochemical; details: for inhibition at 1 µM: read-out: PI3K-γ IH % (inhibition rate);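 as to all read-outs here: ADP produced by p110γ kinase reaction, 80 min at room temperature, detected by far-red fluorescence polarization immunoassay, inhibition relative to 2% DMSO control wells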
Description: as §1, §2

[5] = system: PI3Kδ signaling in basophils; test: Inhibition of PI3Kδ signaling in basophils from human whole blood; format: cell-based; details: read-out: IC50, inhibition of PI3Kδ signaling in basophils
Description: Methods • 1) Heparinized human whole blood was mixed and pipetted into the 96 well v-bottom plate, 100 μL per well. • 2) 10 μL of stimulation buffer (1 mg/mL stock, final concentration of Recombinant human IL-3: 20 ng/mL) was added to the whole blood samples of each well and vortex gently. […] Vortex all the wells once more and incubate for 20 min at 37° C. • 5) Labeling with staining antibody: Degranulation was stopped by incubating the samples on ice for 5 min. 6 μL of staining antibody mixture (anti-CD63-FITC and anti-IgE-PE) was added into each well. Vortex and incubate the wells for 20 min in an ice bath, covered to prevent exposure to light. • 6) The whole blood samples were lysed with 300 uL RBC lysis (pre-warmed to room temperature, 20 to 25° C.). Vortex and incubate the samples for 15 min at room temperature. Spin down cells (5 min, 250×g, 4° C.). The supernatant was aspirated leaving approximately 100 μL in each well. • 7) The blood samples were lysed once more as step 6). • 8) Washing: The samples are washed once with 0.5 mL of washing solution. The plate was centrifuged (5 min, 250×g, 4° C.). The supernatant was aspirated leaving approximately 100 μL in each well. The sample in each well was washed and centrifuged once more as above. • 9) 200 μL of fixing solution (1% papraledehyde in 1% BSA/PBS) was added into each well.
as §2

[6] = biological target: PI3K-α (p110α/p85α) (Homo sapiens (Human), UniProt P42336); test: Transcreener KINASE Assay, fluorescent determination of PI3K enzyme activity; format: biochemical
Description: Inhibition rates were calculated as follow: IH %=(ADP amount under 2% DMSO well−ADP amount under test compound well)/ADP amount under 2% DMSO well×100%.

[7] = Ramos cells, anti-IgM stimulation
[8] = human whole blood, anti-human IgE stimulation, CD63

Chain of PI3K-δ (p110δ/p85α) (O00329 whole entry, species assumed): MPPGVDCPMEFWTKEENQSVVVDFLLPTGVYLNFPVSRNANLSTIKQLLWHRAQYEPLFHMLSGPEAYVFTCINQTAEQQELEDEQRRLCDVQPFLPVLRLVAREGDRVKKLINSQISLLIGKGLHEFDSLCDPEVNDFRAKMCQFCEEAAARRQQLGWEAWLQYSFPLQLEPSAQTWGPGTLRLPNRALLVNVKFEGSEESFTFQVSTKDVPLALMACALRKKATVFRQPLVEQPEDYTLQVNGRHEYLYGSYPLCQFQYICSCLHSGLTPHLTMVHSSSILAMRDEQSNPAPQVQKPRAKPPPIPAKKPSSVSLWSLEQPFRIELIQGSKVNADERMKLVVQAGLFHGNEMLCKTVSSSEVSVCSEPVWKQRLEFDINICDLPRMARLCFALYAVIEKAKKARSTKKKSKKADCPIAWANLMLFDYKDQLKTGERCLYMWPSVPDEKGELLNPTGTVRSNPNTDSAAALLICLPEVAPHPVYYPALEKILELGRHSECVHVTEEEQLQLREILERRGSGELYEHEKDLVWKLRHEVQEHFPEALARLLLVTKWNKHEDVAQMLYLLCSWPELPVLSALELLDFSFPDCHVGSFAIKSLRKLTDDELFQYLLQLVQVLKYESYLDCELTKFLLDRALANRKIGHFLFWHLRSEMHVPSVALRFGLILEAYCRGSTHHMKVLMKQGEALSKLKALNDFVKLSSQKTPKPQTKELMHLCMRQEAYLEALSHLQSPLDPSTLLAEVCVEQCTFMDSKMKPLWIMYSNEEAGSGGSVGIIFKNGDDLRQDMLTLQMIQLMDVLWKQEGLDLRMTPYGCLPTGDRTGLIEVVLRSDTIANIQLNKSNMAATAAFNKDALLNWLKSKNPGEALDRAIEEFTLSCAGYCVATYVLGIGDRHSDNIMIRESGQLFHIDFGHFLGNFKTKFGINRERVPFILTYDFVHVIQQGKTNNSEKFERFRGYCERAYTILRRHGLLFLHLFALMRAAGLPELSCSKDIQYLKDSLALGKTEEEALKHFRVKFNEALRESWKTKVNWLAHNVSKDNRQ
Chain of PI3K-δ (p110δ/p85α) (P27986 whole entry partner, species assumed): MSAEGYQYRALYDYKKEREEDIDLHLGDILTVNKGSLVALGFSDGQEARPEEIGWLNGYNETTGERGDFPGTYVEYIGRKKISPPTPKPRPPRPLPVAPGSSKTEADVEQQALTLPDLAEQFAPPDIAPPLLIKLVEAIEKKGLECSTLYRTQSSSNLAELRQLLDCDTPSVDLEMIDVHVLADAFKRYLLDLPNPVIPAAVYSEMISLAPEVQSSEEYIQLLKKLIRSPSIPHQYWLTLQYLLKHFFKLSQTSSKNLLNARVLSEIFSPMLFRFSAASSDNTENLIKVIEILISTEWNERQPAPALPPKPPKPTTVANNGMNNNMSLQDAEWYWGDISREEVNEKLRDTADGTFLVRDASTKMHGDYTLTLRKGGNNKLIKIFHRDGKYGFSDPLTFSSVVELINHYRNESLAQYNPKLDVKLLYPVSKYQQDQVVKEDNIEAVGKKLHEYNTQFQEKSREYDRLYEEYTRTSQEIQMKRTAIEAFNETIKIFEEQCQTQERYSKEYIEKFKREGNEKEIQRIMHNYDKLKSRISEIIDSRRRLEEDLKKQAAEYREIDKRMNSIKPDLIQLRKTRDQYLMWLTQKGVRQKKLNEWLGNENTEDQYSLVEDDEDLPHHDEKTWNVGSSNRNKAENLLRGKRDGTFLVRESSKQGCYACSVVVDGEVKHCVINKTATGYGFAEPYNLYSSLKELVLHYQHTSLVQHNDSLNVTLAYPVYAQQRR
Chain of PI3K-β (P42338 whole entry, looked up): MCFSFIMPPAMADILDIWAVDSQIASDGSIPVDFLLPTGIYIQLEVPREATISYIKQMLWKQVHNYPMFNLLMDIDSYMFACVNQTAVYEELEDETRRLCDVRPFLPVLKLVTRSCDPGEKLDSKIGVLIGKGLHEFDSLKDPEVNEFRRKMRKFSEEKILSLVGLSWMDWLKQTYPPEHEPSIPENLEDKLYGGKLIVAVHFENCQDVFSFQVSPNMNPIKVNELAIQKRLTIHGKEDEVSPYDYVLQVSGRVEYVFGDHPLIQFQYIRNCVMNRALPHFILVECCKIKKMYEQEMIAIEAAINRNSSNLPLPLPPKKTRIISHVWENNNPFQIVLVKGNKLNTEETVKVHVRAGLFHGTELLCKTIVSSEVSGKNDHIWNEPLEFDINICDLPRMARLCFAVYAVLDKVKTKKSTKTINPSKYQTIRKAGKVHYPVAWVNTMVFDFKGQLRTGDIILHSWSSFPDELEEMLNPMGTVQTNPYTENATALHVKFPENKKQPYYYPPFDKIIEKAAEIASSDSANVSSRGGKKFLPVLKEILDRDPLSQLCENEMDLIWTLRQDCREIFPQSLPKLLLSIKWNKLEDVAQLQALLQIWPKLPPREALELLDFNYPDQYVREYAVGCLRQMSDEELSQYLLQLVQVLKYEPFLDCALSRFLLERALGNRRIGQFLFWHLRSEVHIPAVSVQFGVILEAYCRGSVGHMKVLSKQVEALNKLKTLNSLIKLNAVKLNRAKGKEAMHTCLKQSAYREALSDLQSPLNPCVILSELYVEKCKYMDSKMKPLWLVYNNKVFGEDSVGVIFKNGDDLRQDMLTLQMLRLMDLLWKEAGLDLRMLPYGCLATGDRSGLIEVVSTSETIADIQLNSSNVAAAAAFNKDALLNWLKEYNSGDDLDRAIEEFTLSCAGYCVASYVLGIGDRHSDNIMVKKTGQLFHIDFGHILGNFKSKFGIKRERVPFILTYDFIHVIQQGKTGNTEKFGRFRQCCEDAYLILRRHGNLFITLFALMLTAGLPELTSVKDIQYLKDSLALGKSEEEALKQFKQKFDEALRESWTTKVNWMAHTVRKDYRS
Chain of PI3K-α (p110α/p85α) (P42336 whole entry, species assumed): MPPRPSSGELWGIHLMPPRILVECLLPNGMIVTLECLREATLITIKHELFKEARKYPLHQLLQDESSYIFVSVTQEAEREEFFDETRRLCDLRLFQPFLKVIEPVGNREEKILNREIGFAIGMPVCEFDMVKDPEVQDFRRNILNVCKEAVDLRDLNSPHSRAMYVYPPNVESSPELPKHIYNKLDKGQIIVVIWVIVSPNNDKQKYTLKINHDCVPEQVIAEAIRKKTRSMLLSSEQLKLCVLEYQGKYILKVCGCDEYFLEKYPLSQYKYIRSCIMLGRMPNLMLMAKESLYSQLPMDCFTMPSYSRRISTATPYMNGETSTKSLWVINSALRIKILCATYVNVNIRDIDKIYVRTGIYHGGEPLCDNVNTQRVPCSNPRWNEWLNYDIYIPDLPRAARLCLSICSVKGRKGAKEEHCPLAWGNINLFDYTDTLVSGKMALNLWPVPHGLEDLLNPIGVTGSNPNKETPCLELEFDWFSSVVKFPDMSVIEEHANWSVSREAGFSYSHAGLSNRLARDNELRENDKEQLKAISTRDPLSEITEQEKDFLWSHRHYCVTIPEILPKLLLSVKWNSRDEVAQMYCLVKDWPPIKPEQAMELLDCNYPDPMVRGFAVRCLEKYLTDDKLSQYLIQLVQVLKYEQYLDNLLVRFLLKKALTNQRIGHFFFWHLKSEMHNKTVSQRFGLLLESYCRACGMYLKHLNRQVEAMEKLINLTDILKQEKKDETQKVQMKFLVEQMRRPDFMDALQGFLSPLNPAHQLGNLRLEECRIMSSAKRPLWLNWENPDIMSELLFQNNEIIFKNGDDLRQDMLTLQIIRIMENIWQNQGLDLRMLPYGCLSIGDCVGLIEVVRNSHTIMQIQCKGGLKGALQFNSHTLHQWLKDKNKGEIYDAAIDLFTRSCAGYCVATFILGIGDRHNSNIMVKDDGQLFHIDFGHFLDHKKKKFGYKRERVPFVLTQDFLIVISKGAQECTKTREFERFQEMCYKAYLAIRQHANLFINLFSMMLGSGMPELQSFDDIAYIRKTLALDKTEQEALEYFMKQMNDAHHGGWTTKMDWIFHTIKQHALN
Chain of PI3K-α (p110α/p85α) (P27986 whole entry partner, species assumed): as the sequence (P27986 whole entry partner, species assumed) above
Chain of PI3K-γ (p110γ) (P48736 whole entry, species assumed): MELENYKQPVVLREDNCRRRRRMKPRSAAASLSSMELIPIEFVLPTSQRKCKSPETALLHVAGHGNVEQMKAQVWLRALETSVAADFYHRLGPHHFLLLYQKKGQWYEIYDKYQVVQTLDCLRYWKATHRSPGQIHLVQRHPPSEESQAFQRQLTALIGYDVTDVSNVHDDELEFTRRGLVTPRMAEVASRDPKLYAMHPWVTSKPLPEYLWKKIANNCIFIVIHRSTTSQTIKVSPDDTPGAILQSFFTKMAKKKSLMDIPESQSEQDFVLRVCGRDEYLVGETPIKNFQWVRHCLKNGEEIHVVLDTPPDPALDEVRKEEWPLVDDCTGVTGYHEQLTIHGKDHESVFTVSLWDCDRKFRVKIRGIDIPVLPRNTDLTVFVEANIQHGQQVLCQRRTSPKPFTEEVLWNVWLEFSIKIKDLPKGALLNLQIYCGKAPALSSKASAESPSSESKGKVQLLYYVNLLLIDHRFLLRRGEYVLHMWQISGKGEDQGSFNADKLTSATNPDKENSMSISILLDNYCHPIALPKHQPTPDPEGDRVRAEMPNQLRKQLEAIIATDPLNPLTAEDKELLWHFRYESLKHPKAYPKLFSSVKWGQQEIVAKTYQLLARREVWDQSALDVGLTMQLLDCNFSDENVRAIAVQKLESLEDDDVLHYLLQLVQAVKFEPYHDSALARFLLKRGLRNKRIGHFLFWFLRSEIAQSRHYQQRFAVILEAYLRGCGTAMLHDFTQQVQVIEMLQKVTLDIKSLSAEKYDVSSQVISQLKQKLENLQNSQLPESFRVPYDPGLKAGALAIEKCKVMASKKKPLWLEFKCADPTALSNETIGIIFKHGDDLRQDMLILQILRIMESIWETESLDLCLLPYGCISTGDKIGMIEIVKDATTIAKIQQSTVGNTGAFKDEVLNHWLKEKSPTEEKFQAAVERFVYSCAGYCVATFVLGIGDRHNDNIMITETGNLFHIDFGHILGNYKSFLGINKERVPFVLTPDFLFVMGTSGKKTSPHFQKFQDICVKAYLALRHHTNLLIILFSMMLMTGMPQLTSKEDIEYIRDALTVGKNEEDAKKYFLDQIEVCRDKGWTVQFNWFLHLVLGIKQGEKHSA

Row | inhibition at 1 µM [3] | inhibition at 1 µM ([4]; at 1 μM) | Compound | IC50 [1] | IC50 [2, 7] | IC50 [4] | IC50 [3] | other results
1 | – | – | Cc1cc(F)cc(-c2nn3c(Cl)cnc3cc2[C@H](C)Nc2ncnc(N)c2C#N)c1 [Compound 67] | 5 nM | 3 nM | 1140 nM | 3580 nM | IC50 [5, 8]: 10 nM
2 | 49.4% | 40.8% | C[C@H](Nc1ncnc(N)c1C#N)c1cc2ncc(Cl)n2nc1-c1ccc2scnc2c1 [Compound 74] | 9 nM | 23 nM | – | – | –
3 | – | – | Cc1ccccc1-c1nn2c(Cl)cnc2cc1[C@H](C)Nc1ncnc(N)c1C#N [Compound 31, (S)-4-amino-6-((1-(3-chloro-6-(o-tolyl)imidazo[1,2-b]pyridazin-7-yl)ethyl)amino)pyrimidine-5-carbonitrile] | 4 nM | 2 nM | 146 nM | 371 nM | –
4 | – | – | C[C@H](Nc1ncnc(N)c1-c1nn[nH]n1)c1cc2ncc(Cl)n2nc1-c1ccccc1 [Compound 21, (S)—N^4-(1-(3-chloro-6-phenylimidazo[1,2-b]pyridazin-7-yl)ethyl)-5-(2H-tetrazol-5-yl)pyrimidine-4,6-diamine] | 6 nM | – | 424 nM | – | inhibition at 1 µM ([6]; at 1 μM, read-out: PI3K-α IH % (inhibition rate)): 21.7%
5 | – | – | C[C@H](Nc1ncnc(N)c1C#N)c1cc2ncc(Cl)n2nc1-c1ccccc1S(C)(=O)=O [Compound 68] | 2 nM | 1 nM | 345 nM | 963 nM | IC50 [5, 8]: 2 nM
6 | – | – | C[C@H](Nc1ncnc(N)c1C#N)c1cc2ncc(Cl)n2nc1-c1cc(F)cc(F)c1 [Compound 30, (S)-4-amino-6-((1-(3-chloro-6-(3,5-difluorophenyl)imidazo[1,2-b]pyridazin-7-yl)ethyl)amino)pyrimidine-5-carbonitrile] | 3 nM | – | 410 nM | 1040 nM | IC50 ([5]; Homo sapiens): 6 nM; IC50 ([2]; Ramos): 1 nM
7 | – | – | C[C@H](Nc1ncnc(N)c1C#N)c1cc2ncc(Cl)n2nc1-c1cccc(C#N)c1 [Compound 65] | 2 nM | 2 nM | 611 nM | 1260 nM | IC50 [5, 8]: 14 nM
8 | – | – | C[C@H](Nc1ncnc(N)c1C#N)c1cc2ncc(Cl)n2nc1-c1cccc(C(F)(F)F)c1 [Compound 48] | 9 nM | 8 nM | 1330 nM | 4080 nM | IC50 [5, 8]: 41 nM
9 | 24.4% | 26.5% | C[C@H](Nc1ncnc(N)c1C#N)c1cc2ncc(Cl)n2nc1-c1ccc2cccnc2c1 [Compound 61] | 7 nM | 41 nM | – | – | IC50 [5, 8]: 109 nM
10 | – | – | C[C@H](Nc1ncnc(N)c1Cl)c1cc2ncc(Cl)n2nc1-c1ccccc1 [Compound 40] | 2 nM | 3 nM | > 333 nM | 277 nM | –
11 | – | – | Cc1cccc(-c2nn3c(Cl)cnc3cc2[C@H](C)Nc2ncnc(N)c2C#N)c1 [Compound 62] | 2 nM | 1 nM | 247 nM | 1230 nM | IC50 [5, 8]: 15 nM
12 | – | – | Cc1nc2cc([C@H](C)Nc3ncnc(N)c3C#N)c(-c3ccccc3)nn2c1Cl [Compound 59] | 5 nM | 6 nM | 2390 nM | 1160 nM | IC50 [5, 8]: 100 nM
13 | – | – | C[C@H](Nc1ncnc(N)c1C#N)c1cc2ncc(Cl)n2nc1-c1cccc(F)c1F [Compound 36] | 3 nM | 1 nM | 243 nM | 1310 nM | –
14 | 9.5% | 24.9% | C[C@@H](c1cc2ncc(Cl)n2nc1-c1ccccc1)n1ccc2c(N)ncnc21 [Compound 27, (S)-7-(1-(3-chloro-6-phenylimidazo[1,2-b]pyridazin-7-yl)ethyl)-7H-pyrrolo[2,3-d]pyrimidin-4-amine] | 25 nM | – | – | – | IC50 [5, 8]: 565 nM
15 | – | – | CC(Nc1ncnc(N)c1C#N)c1cc2ncc(Cl)n2nc1-c1ccccc1 (racemic) [Compound 2, 4-amino-6-((1-(3-chloro-6-phenylimidazo[1,2-b]pyridazin-7-yl)ethyl)amino)pyrimidine-5-carbonitrile] | – | – | – | – | IC50 [6]: > 1000 nM
16 | – | – | C[C@H](Nc1ncnc(N)c1C#N)c1cc2ncc(Cl)n2nc1-c1cccnc1 [Compound 77] | 2 nM | 3 nM | 436 nM | 238 nM | –
17 | – | – | C[C@H](Nc1ncnc(N)c1C#N)c1cc2ncc(Cl)n2nc1-c1cccc(Cl)c1 [Compound 41] | 3 nM | 12 nM | 499 nM | 1330 nM | IC50 [5, 8]: 18 nM
18 | 20.5% | 20.2% | Cc1cn2nc(-c3ccccc3)c([C@H](C)Nc3ncnc(N)c3C#N)cc2n1 [Compound 58] | 138 nM | – | – | – | –
19 | – | – | C[C@H](Nc1ncnc(N)c1C#N)c1cc2ncc(Cl)n2nc1-c1cccc(O)c1 [Compound 54] | 2 nM | – | 226 nM | 9 nM | –
20 | – | – | CC(Nc1ncnc2[nH]cc(C#N)c12)c1cc2ncc(Cl)n2nc1-c1ccccc1 (single isomer, unassigned) [Compound 9] | 2 nM | – | 46 nM | 158 nM | –
21 | 3.7% | -19.3% | C[C@H](Nc1nc(N)ncc1C#N)c1cc2ncc(Cl)n2nc1-c1ccccc1 [Compound 34] | – | – | – | – | inhibition at 1 µM [1]: 8.3%
22 | – | – | C[C@H](Nc1ncnc(N)c1C#N)c1cc2ncc(Cl)n2nc1-c1ccccc1C(F)(F)F [Compound 45] | 3 nM | 3 nM | 195 nM | 450 nM | –
23 | 32.2% | 55.2% | CC[C@H](Nc1ncnc2[nH]cnc12)c1cc2ncc(Cl)n2nc1-c1cccc(F)c1 [Compound 47] | 18 nM | – | – | – | –
24 | 67.6% | 64.6% | C[C@H](Nc1ncnc(N)c1C#N)c1cc2ncc(Cl)n2nc1-c1cc(F)ccc1F [Compound 35] | 4 nM | 13 nM | – | – | –
25 | – | – | C[C@H](Nc1ncnc(N)c1C#N)c1cc2ncc(Cl)n2nc1-c1cnn(C)c1 [Compound 72] | 4 nM | – | 513 nM | 89 nM | –
26 | – | – | C[C@H](Nc1ncnc(N)c1C#N)c1cc2ncc(Cl)n2nc1-c1cccc(S(C)(=O)=O)c1 [Compound 46] | 4 nM | 6 nM | 50 nM | 1320 nM | –
27 | 8.5% | -4.7% | C[C@H](Nc1nc(O)nc(N)c1C#N)c1cc2ncc(Cl)n2nc1-c1ccccc1 [Compound 55, (S)-4-amino-6-((1-(3-chloro-6-phenylimidazo[1,2-b]pyridazin-7-yl)ethyl)amino)-2-hydroxypyrimidine-5-carbonitrile] | – | – | – | – | inhibition at 1 µM [1]: 60.3%
28 | 11.1% | 18.8% | CCC(Nc1ncnc(N)c1C#N)c1cc2ncc(Cl)n2nc1-c1ccccn1 (centres unmarked) [Compound 28] | – | – | – | – | inhibition at 1 µM [1]: 39.8%
29 | – | – | C[C@H](Nc1ncnc(N)c1C#N)c1cc2ncc(Cl)n2nc1-c1cc(F)cc(Cl)c1 [Compound 66] | 9 nM | 2 nM | 1120 nM | 4300 nM | IC50 [5, 8]: 262 nM

Row | Compound | inhibition at 1 µM [3] | inhibition at 1 µM ([4]; at 1 μM) | IC50 [1] | IC50 [2, 7] | IC50 [4] | IC50 [3] | other results
30 | Cc1nc(N)c(C#N)c(N[C@@H](C)c2cc3ncc(Cl)n3nc2-c2ccccc2)n1 [Compound 32] | 23.8% | – | 15 nM | 20 nM | 243 nM | – | –
31 | C[C@H](Nc1ncnc(N)c1C(N)=O)c1cc2ncc(Cl)n2nc1-c1ccccc1 [Compound 53, (S)-4-amino-6-((1-(3-chloro-6-phenylimidazo[1,2-b]pyridazin-7-yl)ethyl)amino)pyrimidine-5-carboxamide] | 30.5% | 34.3% | – | 16 nM | – | – | –
32 | C[C@@H](c1cc2ncc(Cl)n2nc1-c1ccccc1)N(C)c1ncnc(N)c1C#N [Compound 42, (S)-4-amino-6-((1-(3-chloro-6-phenylimidazo[1,2-b]pyridazin-7-yl)ethyl)(methyl)amino)pyrimidine-5-carbonitrile] | 7.4% | 18.2% | 339 nM | – | – | – | –
33 | CC[C@@H](Nc1ncnc(N)c1C#N)c1cc2ncc(Cl)n2nc1-c1cccc(F)c1 [Compound 43, (R)-4-amino-6-((1-(3-chloro-6-(3-fluorophenyl)imidazo[1,2-b]pyridazin-7-yl)propyl)amino)pyrimidine-5-carbonitrile] | 23.6% | 27.2% | 132 nM | – | – | – | –
34 | C[C@H](Nc1ncnc(N)c1C(=O)O)c1cc2ncc(Cl)n2nc1-c1ccccc1 [Compound 52, (S)-4-amino-6-((1-(3-chloro-6-phenylimidazo[1,2-b]pyridazin-7-yl)ethyl)amino)pyrimidine-5-carboxylic acid] | -6.3% | – | 80 nM | – | – | – | inhibition at 1 µM [4]: -26.1%
35 | C[C@H](Nc1ncnc2[nH]cnc12)c1cc2ncc(Cl)n2nc1-c1cccc(F)c1 [Compound 16] | 27.5% | – | 3 nM | – | 326 nM | – | IC50 [6]: > 1000 nM
36 | CC(Nc1ncnc(N)c1C#N)c1cc2nccn2nc1-c1ccccc1 (centres unmarked) [Compound 1, 4-amino-6-((1-(6-phenylimidazo[1,2-b]pyridazin-7-yl)ethyl)amino)pyrimidine-5-carbonitrile] | 28.1% | – | 28 nM | – | – | – | inhibition at 1 µM [4]: 16.1%
